Data on eight compounds can be found in patent publication US20110142866A1, “PEPTIDE ANALOGUES AND CONJUGATES THEREOF” (Eldrug S.A., priority 2007, published 2011).

Entries after “also recorded” stand apart in the source; their conditions may differ.

Common to all, as to format: in vivo, SJL/J mice
Test [1] has as its system IFN-γ secretion by T cells. Kind of test: IFN-γ ELISpot of spleen cells from immunized mice. Details: key to IFN-γ: −: negative; +/−: very weak; +: weak; ++: moderate; +++: strong. On the procedure:
(§1) Female 6-8 week old SJL/J mice used in all experiments, were purchased from Walter and Eliza Hall Institute (VIC Australia) and housed at the Biological Research Laboratory at Burnet Institute at Austin, Heidelberg, Australia. SJL/J mice were immunized twice on days 0, 14 intradermally (base of tail) with 50 μg MBP83-99 peptide analogue-KLH-reduced mannan.
(§2) ELISpot analyses specific T cell responses to antigens by detecting the secretion of specific cytokines. Spleen cells from immunized SJL/J mice were isolated 14 days after immunization and assessed by ELISpot for IFN-γ, IL-4 or IL-10 secretion by T cells. IFN-γ ELISpot assay was performed on MultiScreen-IP Filter Plate (MAIP S4510) with hydrophobic PVDF filters (Millipore, UK) while IL-4 and IL-10 ELISpot was performed on MultiScreen-HA Filter Plate (MAHA S4510) with mixed cellulose esters filters (Millipore, UK). MAIP S4510 plates were pre-wet with 50 μl of 70% ethanol, washed 5 times with 200 μl sterile PBS and coated with 70 μl of 5 μg/ml anti-IFN-γ capture antibody, AN18 (Mabtech, Australia) in PBS and left to incubate at 4° C. O/N. While 70 μl of 5 μg/ml anti-IL-4 and anti-IL-10 capture antibody (Mabtech, Australia) was added directly to MAHA S4510 plates and incubated at 4° C. O/N without 70% ethanol treatment. Following 5 washes with PBS, plates were blocked by adding 200 μl of culture media (supplemented with 2.5% FCS) and incubated for 2 hours at 37° C. The blocking media was discarded and 10 μg/ml recall peptides (MBP83-99 peptide analogues not conjugated to KLH-reduced mannan) were added into each defined well. Con A (1.0 μg/ml; IL-4 and IFN-γ) or LPS (1.0 μg/ml; IL-10) were used as an internal positive controls and no peptide was used as negative control. Triplicate wells were set up for each condition. 5×10^5 spleen cells in 100 μl culture media were seeded into each well and incubated for 18 hours for IFN-γ, 24 hours for IL-4 and 48 hours for IL-10 at 37° C. Plates were washed 5 times PBS/0.05% Tween 20 and 5 times PBS and incubated for 2 hours at RT with anti-murine IFN-γ, IL-4 or IL-10 monoclonal antibody-biotin. Plates were washed and streptavidin-ALP was added at 1.0 μg/ml and incubated for 2.0 hours at RT. Spots of activity were detected using a colorimetric AP kit (Biorad, Hercules, Calif. USA) and counted using an AID ELISpot plate reader (Autoimmun Diagnostika GmbH, Germany). Data are presented as mean spot forming units (sfu) per 0.5×10^6 cells +/−standard error of the mean (SEM).
(§3) MBP87-99, [R^91, A^96]MBP87-99 or [A^91, A^96]MBP87-99 peptides were dissolved in PBS and emulsified in an equal volume of complete Freund's adjuvant (CFA) which contained 1.0 mg/ml of heat killed Mycobacterium tuberculosis H37RA (Sigma, Victoria, Australia). SJL/J mice were given one subcutaneous injection containing 50 μg peptide into the base of tail.
(§4) SJL/J mice were immunized twice on days 0 and 14 intradermally (base of tail) with 50 μg MBP87-99-KLH-reduced mannan, [R^91, A^96]MBP87-99-KLH-reduced mannan or [A^91, A^96]MBP87-99-KLH-reduced mannan conjugates.
(§5) ELISpot detects specific T cell responses to antigens by measuring the secretion of specific cytokines from individual cells. Spleen cells from immunized SJL/J mice were isolated 28 days after CFA immunization or 14 days after the last immunization with reduced mannan-peptides and assessed by ELISpot for IFN-γ and IL-4 secretion by T cells. IFN-γ ELISpot assay was performed on MultiScreen-IP Filter Plate (MAIP S4510) with hydrophobic PVDF filters (Millipore, UK), while IL-4 ELISpot assays were performed on MultiScreen-HA Filter Plate (MAHA S4510) with mixed cellulose esters filters (Millipore, UK). MAIP S4510 plates were pre-weted with 50 μl of 70% ethanol, washed 5 times with 200 μl of sterile phosphate-buffered saline (PBS) and coated with 70 μl of 5 μg/ml anti-IFN-γ capture antibody, AN18 (Mabtech, Australia) in PBS and incubated O/N at 4° C. […]

In test [2] the test system is IL-4 secretion by T cells. Kind of test: IL-4 ELISpot of spleen cells from immunized mice. Details: key to IL-4: −: negative; +/−: very weak; +: weak; ++: moderate; +++: strong. Particulars: for IL-4 responses: peptide conjugated to reduced mannan, two injections. On the procedure:
as §1, §2, §3, §4, §5

The test system of another test is spleen cells. Kind of test: T cell proliferation assay ([3H]-thymidine uptake). Set-up: key to Proliferation / Proliferation cross reaction: −: negative; +/−: very weak; +: weak; ++: moderate; +++: strong. Particulars: for Proliferation cross reaction: Table 3, complete Freund's adjuvant; for proliferation of MBP83-99 specific T cells to recall analogue (in words): mice immunized with agonist MBP83-99 in CFA; for Proliferation: Table 2, peptide analogues conjugated to reduced mannan-KLH. On the procedure: Spleen cells from immunized SJL/J mice were isolated 14 days after immunization and assessed by T cell proliferation assay. 1×10^5 spleen cells in 100 μl culture media were seeded into 96 U-bottom plates and incubated for 1-6 days at 37° C. in the presence of recall peptide (10 μg/ml), ConA (positive control) or no peptide (negative control). Proliferation was assessed by adding 1 μCi of [^3H]-thymidine per well to one plate per time point (days 1-6). Cells were incubated for a further 6 h before harvesting onto glass fiber filters. [^3H] uptake was measured using a β-scintillation counter (Top Count Gamma Counter, Packard, USA).
Proliferation assays were used to detect the level of antigen specific T cells by measuring the [3H]thymidine uptake of T cells proliferating in the presence of peptides on days 1-6. Spleen cells from mice immunized with linear agonist MBP83-99 peptide were isolated 28 days after immunization and assessed by T cell proliferation assay. T cells proliferated to MBP83-99 peptide, reaching a peak by day 5 of up to 25 000 cpm (FIG. 9D). In addition, the MBP83-99 specific T cells cross-reacted with linear [A^91]MBP83-99 and mutant cyclo(83-99)[A^91]MBP83-99 peptide analogues (FIG. 9D). The cyclo(83-99)[A^91]MBP83-99 peptide proliferated similarly to linear [A^91]MBP83-99 peptide, reaching a peak on day 5 (FIG. 9D). ConA (internal control) yielded proliferation of more than 75 000 cpm peaked on day 2 and was excluded from the figures, and no peptide (cells alone) was used as background negative control.

The mark [3] stands for this setting: 50 μg peptide conjugated to reduced mannan, two intradermal injections, spleen cells 14 days post-immunization.
The mark [4] stands for this setting: 50 μg peptide emulsified in CFA, one injection, spleen cells 28 days.
Setting [5] is: Table 3, peptide analogues emulsified in complete Freund's adjuvant.
The mark [6] stands for this setting: Table 2, peptide analogues conjugated to reduced mannan-KLH.

`CC[C@H](C)[C@@H]1NC(=O)[C@H](CC(N)=O)NC(=O)[C@H](CCCCN)NC(=O)[C@H](Cc2ccccc2)NC(=O)[C@H](Cc2ccccc2)NC(=O)[C@H](Cc2c[nH]cn2)NC(=O)[C@H](C(C)C)NC(=O)[C@H](C(C)C)NC(=O)[C@@H]2CCCN2C(=O)[C@H](CC(N)=O)NC(=O)[C@H](CCC(=O)O)NC(=O)[C@@H]2CCCN2C(=O)[C@H]([C@@H](C)O)NC(=O)[C@H](CCCNC(=N)N)NC(=O)[C@@H]2CCCN2C(=O)[C@H]([C@@H](C)O)NC(=O)[C@H](C(C)C)NC1=O` [cyclo(83-99)MBP83-99, cyclo(83-99)E N P V V H F F K N I V T P R T P]: the “IFN-γ secreting T cells (in words)” value is “weak and generated IFN-γ secreting T cells” in test [1] (setting [3]); “induced IFN-γ responses” in test [1] (setting [4]). In test [1] (setting [5]), the IFN-γ result is reported as “+”. For the same compound, the “IL-4 secreting T cells (in words)” value is “did not stimulate; also recorded: weak or no” in test [2] (setting [3]) and “induced IL-4” in test [2] (setting [4]). The IL-4 result in test [2] (setting [5]) is on record as “−”.

For the compound “E N P V V H F F A N I V T P R T P (ENPVVHFFANIVTPRTP) [[A^91]MBP83-99]”, the “IFN-γ secreting T cells (in words)” value in test [1] (setting [3]) is “negative”; in test [1] (setting [4]), “lower”. Moreover, the IFN-γ result in test [1] (setting [6]) and in test [1] (setting [5]) was “−” in each case. The results for the “IL-4 secreting T cells (in words)” value in test [2] (setting [3]) and in test [2] (setting [4]) were “high levels” and “not able to generate IL-4”, respectively. For the same compound, the IL-4 result in test [2] (setting [6]) is on record as “+++”; in test [2] (setting [5]), “−”. The IL-4 responses entry in test [2] was “up to 600 SFU/0.5 million cells”. The Proliferation cross reaction result in the test with spleen cells is on record as “++”. The “proliferation of MBP83-99 specific T cells to recall analogue (in words)” value (from here on “proliferation … to recall analogue (in words)”) in the test with spleen cells is on record as “cross-reacted”.

For “E N P V V H F F E N I V T P R T P (ENPVVHFFENIVTPRTP) [[E^91]MBP83-99]”, the IFN-γ entry in test [1] (setting [6]) and in test [1] (setting [5]) was “−” each time. For the same compound, in test [2] (setting [3]), the “IL-4 secreting T cells (in words)” value is “high levels”. Also, the values for the IL-4 result in test [2] (setting [6]) and in test [2] (setting [5]) were “+++” and “−”, respectively. Further, the Proliferation cross reaction result in the test with spleen cells is “++”.

As for “E N P V V H F F F N I V T P R T P (ENPVVHFFFNIVTPRTP) [[F^91]MBP83-99]”, the “IFN-γ secreting T cells (in words)” value in test [1] (setting [3]) is “weak and induced”. The IFN-γ entry in test [1] (setting [6]) and in test [1] (setting [5]) was “++” throughout. Also, the “IL-4 secreting T cells (in words)” value in test [2] (setting [3]) was “high levels; also recorded: induced”. Besides, the IL-4 entry is “+++” in test [2] (setting [6]) and “−” in test [2] (setting [5]). Moreover, the Proliferation entry in the test on spleen cells is given as “+++”. Besides, in the test on spleen cells, the Proliferation cross reaction result is “++”. In the test on spleen cells (immunization with reduced mannan-KLH-peptide), the “T cell proliferation to recall peptide (in words)” value is “strong”.

Regarding “E N P V V H F F K N I V T P R T P (ENPVVHFFKNIVTPRTP) [MBP83-99, reference compound]”, the “IFN-γ secreting T cells (in words)” value in test [1] (setting [3]) is “weak and generated IFN-γ secreting T cells and high levels”; in test [1] (setting [4]), “induced IFN-γ responses”. The IFN-γ entry is reported as “++” in test [1] (setting [6]) and “+” in test [1] (setting [5]). Also, the “IL-4 secreting T cells (in words)” value in test [2] (setting [3]) is “did not stimulate; also recorded: weak or no; also recorded: low levels”; in test [2] (setting [4]), “did not induce IL-4”. The IL-4 entry in test [2] (setting [6]) and in test [2] (setting [5]) was “−” throughout. In addition, the “T cell proliferation, peak” value in the test with spleen cells (mice immunized with linear MBP83-99 (CFA), spleen cells 28 days, recall peptide, peak by day 5) is on record as “up to 25 000 cpm”.

For “E N P V V H F F R N I V T A R T P (ENPVVHFFRNIVTARTP) [[R^91, A^96]MBP83-99]”, the “IFN-γ secreting T cells (in words)” value in test [1] (setting [3]) is listed as “no IFN-γ”. Also, the IFN-γ entry in test [1] (setting [6]) is “−”; in test [1] (setting [5]), “++”. In addition, the “IL-4 secreting T cells (in words)” value in test [2] (setting [3]) is on record as “high levels”. The IL-4 result is given as “+++” in test [2] (setting [6]) and “++” in test [2] (setting [5]). In addition, in the test on spleen cells, the Proliferation cross reaction entry is given as “+/−”. The “proliferation … to recall analogue (in words)” value with spleen cells is on record as “weakly proliferated”.

In the case of “E N P V V H F F Y N I V T P R T P (ENPVVHFFYNIVTPRTP) [[Y^91]MBP83-99]”, the IFN-γ entry in test [1] (setting [6]) and in test [1] (setting [5]) was “−” each time. For the same compound, the “IL-4 secreting T cells (in words)” value in test [2] (setting [3]) is “high levels”. Further, the values for the IL-4 result in test [2] (setting [6]) and in test [2] (setting [5]) were “+++” and “−”, respectively. Besides, the Proliferation entry with spleen cells is reported as “+/−”. Moreover, the Proliferation cross reaction result in the test with spleen cells is given as “+/−”. Also, the “proliferation … to recall analogue (in words)” value in the test with spleen cells is “weakly proliferated”.

As for “cyclo(83-99)E N P V V H F F A N I V T P R T P (ENPVVHFFANIVTPRTP; cyclised or stapled) [cyclo(83-99)[A^91]MBP83-99]”, the figures for the “IFN-γ secreting T cells (in words)” value in test [1] (setting [3]) and in test [1] (setting [4]) were “negative” and “lower”, respectively. Further, the IFN-γ entry in test [1] (setting [6]) and in test [1] (setting [5]) was “−” throughout. Moreover, the “IL-4 secreting T cells (in words)” value in test [2] (setting [3]) was “negative”; in test [2] (setting [4]), “did generate IL-4”. For the same compound, the IL-4 entry in test [2] (setting [6]) and in test [2] (setting [5]) was “−” throughout. Moreover, the IL-4 responses entry in test [2] is recorded as “up to 70 SFU/0.5 million cells”. Also, the Proliferation cross reaction entry in the test on spleen cells is “++”. In addition, in the test on spleen cells, the “proliferation … to recall analogue (in words)” value is listed as “cross-reacted”.
